US20100240713A1, “AROMATIC AND HETEROAROMATIC COMPOUNDS USEFUL IN TREATING IRON DISORDERS” (XENON PHARMACEUTICALS INC., priority 2007, published 2010)
Structures can show the parent of a compound that is named as a salt.

Target: T1, DMT1 (Homo sapiens, UniProt P49281)
T1 sequence (P49281 1-568): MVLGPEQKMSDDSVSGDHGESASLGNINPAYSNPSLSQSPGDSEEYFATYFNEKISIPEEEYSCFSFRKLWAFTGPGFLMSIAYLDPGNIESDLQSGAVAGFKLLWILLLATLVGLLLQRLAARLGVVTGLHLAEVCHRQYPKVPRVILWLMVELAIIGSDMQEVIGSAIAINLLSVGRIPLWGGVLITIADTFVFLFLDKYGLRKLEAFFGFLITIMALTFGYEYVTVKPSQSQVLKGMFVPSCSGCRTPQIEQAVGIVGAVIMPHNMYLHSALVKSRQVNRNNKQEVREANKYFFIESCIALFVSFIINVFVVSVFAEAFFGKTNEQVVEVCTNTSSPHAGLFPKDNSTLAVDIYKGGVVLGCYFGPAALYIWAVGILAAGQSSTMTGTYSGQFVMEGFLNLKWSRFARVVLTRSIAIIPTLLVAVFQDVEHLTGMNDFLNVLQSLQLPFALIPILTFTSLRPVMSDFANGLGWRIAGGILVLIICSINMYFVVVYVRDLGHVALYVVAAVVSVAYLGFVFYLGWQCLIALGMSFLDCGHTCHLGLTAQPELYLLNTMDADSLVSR
Assay: DMT1 activity assay (IC50 activity level, Table 1)
Type: cell-based
Conditions: inhibition of DMT1
Excerpt: This example discloses various in vitro assay for testing and profiling test agents against DMT1 stably expressed in cells of either an endogenous or recombinant origin. These assays can use stable cell lines overexpressing DMT1 or intestinal cells and intestinal tissue expressing endogenous DMT1. DMT1 function could also be assessed in other cell types that express DMT1. Of greatest relevance would be the erythrocytes (e.g. K562 cells) or hepatocytes (e.g. […]).
DMT1 function can be assessed in a number of ways, including monitoring fluorescence changes of an iron fluorophore (e.g. calcein), monitoring uptake of radiolabelled iron (^55Fe or ^59Fe) (Picard et al., J. Biol. Chem., 2000, 275(46):35738-45 and Wetli et al., Chem. Biol. 2006 September; 13(9):965-72), or by assessing the current or transport of iron and other metals into the cells or tissues using standard electrophysiological techniques (Gunshin et al., Nature, 1997, 388(6641):482-8.).
Variations of these assays involve alterations of incubation times, the iron status of the cells and tissues (which may be modulated by chemical chelators or by harvesting from iron deficient animals), the metal cation detected and the pH of the reaction can generally be made by conventional techniques known to those skilled in the art.
The Example numbers provided in Table 1 correspond to the Examples herein: […]

SMILES	IC50 [nM]
CN/C(=N\C#N)NCc1c(C)cc(C)c(CN/C(=N/C#N)NC)c1C [Example 2, 1,3-di[(2-cyano-3-methylguanidino)methyl]-2,4,6-trimethylbenzene]	≥ 1000
N=C(N)Cc1cccc(CC(=N)N)c1 [Example 4, 2,2′-(1,3-phenylene)diacetimidamide]	≥ 1000
CNC(=N)SCc1c(C)cc(C)c(CSC(=N)NC)c1C.Cl [Example 7, 1,3-di[(methylamidino)thiomethyl]-2,4,6-trimethylbenzene 4-methylbenzenesulfonate hydrochloride]	≥ 1000

Tested on: not given
Assay: not given
Conditions: not given

SMILES	melting point
N=C(N)SCc1cccc2cccc(CSC(=N)N)c12 (as salt: hydrobromid) [Example 3.13, naphthalene-1,8-diylbis(methylene)dicarbamimidothioate dihydrobromide]	230 to 233 °C
N#Cc1c(CSC(=N)N)cccc1CSC(=N)N (as salt: hydrobromid) [Example 3.14, (2-cyano-1,3-phenylene)bis(methylene)dicarbamimidothioate dihydrobromide]	270 to 272 °C (dec.)
COc1c(CSC(=N)N)cc(C)cc1CSC(=N)N (as salt: hydrobromid) [Example 3.18, (2-methoxy-5-methyl-1,3-phenylene)bis(methylene)dicarbamimidothioate dihydrobromide]	236 to 239 °C
Cc1c(CSC(=N)N)cccc1CSC(=N)N (as salt: hydrobromid) [Example 3.21, (2-methyl-1,3-phenylene)bis(methylene)dicarbamimidothioate dihydrobromide]	258 to 261 °C
Cc1c(C)c(C)c(CSC(=N)N)c(CSC(=N)N)c1C (as salt: hydrobromid) [Example 3.22, (3,4,5,6-tetramethyl-1,2-phenylene)bis(methylene)dicarbamimidothioate dihydrobromide]	> 265 °C
CC(C)(SC(=N)N)c1cccc(C(C)(C)SC(=N)N)c1 (as salt: hydrobromid) [Example 6, 2-{1-[3-(1-carbamimidoylsulfanyl-1-methylethyl)phenyl]-1-methylethyl}-isothiourea dihydrobromide]	142 to 144 °C
Cc1cc(C)c(C(C)SC(=N)N)c(C)c1C(C)SC(=N)N (stereo not drawn) (as salt: hydrobromid) [Example 6.1, 2-{1-[3-(1-carbamimidoylsulfanylethyl)-2,4,6-trimethylphenyl]ethyl}-isothiourea dihydrobromide]	204 to 206 °C
Cc1cc(CSC(=N)N)c(O)c(CSC(=N)N)c1 (as salt: hydrobromid) [Example 6.2, (2-hydroxy-5-methyl-1,3-phenylene)bis(methylene)dicarbamimidothioate dihydrobromide]	223 to 225 °C
Cc1c(C)c(CSC(=N)N)c(C)c(CSC(=N)N)c1C (as salt: hydrochloride) [Example 3.5, (2,4,5,6-tetramethyl-1,3-phenylene)bis(methylene)dicarbamimidothioate dihydrochloride]	> 260 °C
N=C(N)SCc1c(Cl)c(Cl)c(Cl)c(CSC(=N)N)c1Cl (as salt: hydrochloride) [Example 3.6, (2,4,5,6-tetrachloro-1,3-phenylene)bis(methylene)dicarbamimidothioate dihydrochloride]	208 to 210 °C
N=C(N)SCc1nnc(CSC(=N)N)n1N (as salt: hydrochloride) [Example 3.7, (4-amino-4H-1,2,4-triazole-3,5-diyl)bis(methylene)dicarbamimidothioate dihydrochloride]	213 °C (dec.)
N=C(N)SCc1n[nH]c(CSC(=N)N)n1 (as salt: hydrochloride) [Example 3.8, (1H-1,2,4-triazole-3,5-diyl)bis(methylene)dicarbamimidothiodate dihydrochloride]	196 to 200 °C
Cc1cc(C)c(CSC(=N)N)cc1CSC(=N)N (as salt: hydrochloride) [Example 3.16, (4,6-dimethyl-1,3-phenylene)bis(methylene)dicarbamimidothioate dihydrochloride]	248 to 251 °C
Cc1c(CSC(=N)N)cc(CSC(=N)N)c(C)c1Br (as salt: hydrochloride) [Example 3.17, (5-bromo-4,6-dimethyl-1,3-phenylene)bis(methylene) dicarbamimidothioate dihydrochloride]	270 to 273 °C
Cc1c(O)c(C)c(CSC(=N)N)c(C)c1CSC(=N)N (as salt: hydrochloride) [Example 3.19, (5-hydroxy-2,4,6-trimethyl-1,3-phenylene)bis(methylene) dicarbamimidothioate dihydrochloride]	175 to 178 °C
Cc1nc(C)c(CSC(=N)N)c(C)c1CSC(=N)N (as salt: hydrochloride) [Example 8, (2,4,6-trimethylpyridine-3,5-diyl)bis(methylene)dicarbamimidothioate dihydrochloride]	185 to 187 °C
N=C(N)SC(=O)c1sc(C(=O)SC(=N)N)c(Cl)c1Cl (as salt: hydrochloride) [Example 9, 2-(5-carbamimidoylsulfanecarbonyl-3,4-dichlorothiophene-2-carbonyl)isothiourea dihydrochloride]	215 to 218 °C
Cc1cc(C)c(CNC(=N)N)c(C)c1CNC(=N)N (as salt: toluenesulfonate) [Example 1, N-(3-guanidinomethyl-2,4,6-trimethylbenzyl)guanidine, bis(p-toluenesulfonate)]	> 250 °C
CN/C(=N\C#N)NCc1c(C)cc(C)c(CN/C(=N/C#N)NC)c1C [Example 2, 1,3-di[(2-cyano-3-methylguanidino)methyl]-2,4,6-trimethylbenzene]	270 to 272 °C
N=C(N)Cc1cccc(CC(=N)N)c1 [Example 4, 2,2′-(1,3-phenylene)diacetimidamide]	200 to 205 °C
CNC(=N)SCc1c(C)cc(C)c(CSC(=N)NC)c1C.Cl [Example 7, 1,3-di[(methylamidino)thiomethyl]-2,4,6-trimethylbenzene 4-methylbenzenesulfonate hydrochloride]	223 to 225 °C
